According to paper PMC10290954 (Nature Metabolism, 2023):
Values joined by “and” are separate entries in the source; they are usually repeats but may differ in a detail not shown here. Equal entries are not always repeated.

Assays:
[1] = system: human islets; test: Human islets, glucagon secretion with tirzepatide at 2.7 or 10 mM glucose ± alanine (Fig. 3d); assay type: cell-based
Experimental: Human islets were obtained from both the Alberta Diabetes Institute and the Integrated Islet Distribution Program. All islets were obtained from consenting donors. Details for the general perifusion protocol have been previously described[21] and are similar to the mouse perifusion protocol. […] Each set of human islets consisted of n = 3 for each condition. These were averaged to generate a single data point (Fig. 2c). Insulin values were measured with a Lumit insulin immunoassay (Promega) using an EnVision plate reader (PerkinElmer). For the glucagon secretion experiments (Fig. 3), the average glucagon values were calculated during control (minutes 35–45) and stimulated (minutes 55–65) conditions. All peptides were used at 30 nM concentrations based on previous work[16]. Amino acids were used at concentrations of 3 mM based on previous work[11]. Glucagon was measured with a Lumit Glucagon Immunoassay Kit (cat. no. CS3037A02; Promega) using an EnVision plate reader (PerkinElmer). Somatostatin was measured with an ELISA assay (cat. no. FEK-060-14; Phoenix Pharmaceuticals). All data are expressed as the measured concentration relative to both flow rate and islet number (insulin, ng ml^–1 × (1/200 µl ml^–1) × (1/75 islets); glucagon, pM × (1/200 µl ml^–1) × (1/75 islets); somatostatin, pg ml^–1 × (1/200 µl ml^–1) × (1/75 islets))[49]. […]

[2] = target: T1, mouse GIP receptor (Mus musculus, UniProt Q0P543); test: Gs recruitment (ligand-induced BRET), mouse GIPR; assay type: cell-based; parameters: expressed in transfected cells; settings: HEK-293T; mouse GIPR, HEK293T BRET; mean (s.e.m., n); read-out: Gs recruitment Emax
T1 sequence (Q0P543 19-460): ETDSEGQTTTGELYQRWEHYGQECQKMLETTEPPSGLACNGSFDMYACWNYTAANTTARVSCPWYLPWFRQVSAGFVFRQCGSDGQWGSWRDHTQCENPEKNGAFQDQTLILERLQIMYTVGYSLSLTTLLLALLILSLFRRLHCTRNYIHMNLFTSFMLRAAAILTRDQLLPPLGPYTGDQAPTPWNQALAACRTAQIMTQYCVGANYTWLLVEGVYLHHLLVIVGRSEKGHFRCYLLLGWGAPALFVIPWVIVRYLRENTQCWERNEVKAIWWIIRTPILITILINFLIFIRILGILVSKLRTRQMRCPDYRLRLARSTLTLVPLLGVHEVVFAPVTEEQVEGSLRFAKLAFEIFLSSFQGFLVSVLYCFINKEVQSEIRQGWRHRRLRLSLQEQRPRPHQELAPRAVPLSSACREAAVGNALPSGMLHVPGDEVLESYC
Experimental: (§1) BRET measurements were taken every 1 min using a PHERAstar FS multi-mode microplate reader. Baseline measurements were taken after an initial 5 min incubation with coelenterazine-h or NanoGlo-containing HBSS, after which cells were treated with either a vehicle (PBS) or the respective ligands. Ligand-specific ratiometric BRET signals were normalized to the vehicle, producing the ‘ligand-induced BRET ratio’[46], followed by additional normalization to well-specific baseline readings. Ligand-induced measurements on the temporal scale are represented as the subsequent measurement after time point zero. Positive or negative incremental area under the curves (+iAUC, –iAUC) were calculated where noted. Concentration–response curves were generated by three-parameter logistic fitting in Prism 9.0.

[3] = target: T2, Mouse GLP-1R (Mus musculus, UniProt O35659); test: Gs recruitment (ligand-induced BRET), mouse GLP-1R; assay type: cell-based; settings: mean (SEM, n)
T2 construct: expressed in transfected cells; host or cells: HEK293T, transient (Lipofectamine 2000)
T2 sequence (O35659 22-463): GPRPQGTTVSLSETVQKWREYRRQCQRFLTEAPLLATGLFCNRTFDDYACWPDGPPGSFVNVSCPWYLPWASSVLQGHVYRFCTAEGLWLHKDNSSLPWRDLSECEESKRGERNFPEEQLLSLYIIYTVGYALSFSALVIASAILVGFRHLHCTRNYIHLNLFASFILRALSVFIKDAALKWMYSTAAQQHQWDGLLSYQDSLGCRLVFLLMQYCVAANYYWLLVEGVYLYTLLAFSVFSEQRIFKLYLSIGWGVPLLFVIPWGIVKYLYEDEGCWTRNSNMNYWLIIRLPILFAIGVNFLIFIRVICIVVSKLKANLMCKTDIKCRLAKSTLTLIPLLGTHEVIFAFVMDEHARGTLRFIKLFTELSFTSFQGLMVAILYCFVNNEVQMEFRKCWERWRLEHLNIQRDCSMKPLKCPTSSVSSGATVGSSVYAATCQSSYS
Experimental: as §1

[4] = in vivo; cited from earlier work
Text: Tirzepatide is an agonist for both incretin receptors, engineered from the human GIP (hGIP) peptide sequence. It has an average half-life of approximately 5 days, enabling once-weekly dosing.

[5] = target: T2, Mouse GLP-1R; test: cAMP generation (Glosensor), mouse GLP-1R; assay type: cell-based
Experimental: (§2) Methods for these assays have been previously described. In brief, for GTPγs binding, the potency of ligands to stimulate receptor-dependent elevation of the GTPγS-bound Gαs subunit was determined using membrane preparations from low-receptor-density receptor clonal cell lines. Reactions were incubated for 30 min at room temperature in white, clear-bottom microtiter plates, and per cent of the maximal response was calculated using control wells as a reference. Relative EC50 values were derived by nonlinear regression analysis using the per cent response versus the concentration of ligand and fitted to a four-parameter logistic equation using GraphPad Prism 7 software. For cAMP assays, kinetic cAMP assays were performed in low-density receptor cell clones transfected with the Glosensor 22 F vector (Promega). Cells were equilibrated for 5–20 min and then 20 μl of 10× ligand was added and a luminescence time course was collected. Ligand (10×) was titrated by manual serial dilution in DMSO followed by step-down into assay buffer.

[6] = target: T1, mouse GIP receptor; test: cAMP generation (Glosensor), mouse GIPR; assay type: cell-based; parameters: expressed in transfected cells; host or cells: low-receptor-density clonal cell lines; settings: mouse GIPR, low-density receptor clones, Glosensor; mean (s.e.m., n); read-out: cAMP Emax
Experimental: as §2

SMILES	iAUC values (glucagon secretion) [1]	Emax [2]	Emax [3]	Half-life [4]	Emax ([5]; HEK293, mouse GLP-1R HEK-293 cells, n = 6, read-out: Emax, mean of column (T-test Emax, cAMP))	Emax ([5]; HEK293, read-out: Arthmetic Mean Emax)	Emax ([5]; Mouse GLP-1R, mean (n), read-out: cAMP EMAX)	Emax [6]
C[C@H](N)C(=O)O [Alanine]	42.82 and 37.07 and 49.41 and 40.38 and 34.9 and 39.11	–	–	–	–	–	–	–
CC[C@H](C)[C@H](NC(=O)[C@H](CC(C)C)NC(=O)[C@H](Cc1c[nH]c2ccccc12)NC(=O)[C@H](CCC(N)=O)NC(=O)[C@@H](NC(=O)[C@H](Cc1ccccc1)NC(=O)[C@H](C)NC(=O)[C@H](CCCCNC(=O)COCCOCCNC(=O)COCCOCCNC(=O)CC[C@H](NC(=O)CCCCCCCCCCCCCCCCCCC(=O)O)C(=O)O)NC(=O)[C@H](CCC(N)=O)NC(=O)[C@H](C)NC(=O)[C@@H](NC(=O)[C@H](CCCCN)NC(=O)[C@H](CC(=O)O)NC(=O)[C@H](CC(C)C)NC(=O)C(C)(C)NC(=O)[C@@H](NC(=O)[C@H](CO)NC(=O)[C@H](Cc1ccc(O)cc1)NC(=O)[C@H](CC(=O)O)NC(=O)[C@H](CO)NC(=O)[C@@H](NC(=O)[C@H](Cc1ccccc1)NC(=O)[C@@H](NC(=O)CNC(=O)[C@H](CCC(=O)O)NC(=O)C(C)(C)NC(=O)[C@@H](N)Cc1ccc(O)cc1)[C@@H](C)O)[C@@H](C)O)[C@@H](C)CC)[C@@H](C)CC)C(C)C)C(=O)N[C@@H](C)C(=O)NCC(=O)NCC(=O)N1CCC[C@H]1C(=O)N[C@@H](CO)C(=O)N[C@@H](CO)C(=O)NCC(=O)N[C@@H](C)C(=O)N1CCC[C@H]1C(=O)N1CCC[C@H]1C(=O)N1CCC[C@H]1C(=O)N[C@@H](CO)C(N)=O [TZP, tirzepatide]	–	72.6%	35.6%	approximately 5 days	95%	95%	84%	103%
